Experiment: solvent given as SMILES

SMILES: CC(=O)C1COCCOCCOCCOCCOc2ccccc2O1 (centres undefined)
- solvation free energy, 298 K (in Cc1cccc(C)c1): -19.2 kcal/mol
- solvation free energy, 298 K (in O): -17.8 kcal/mol

SMILES: CCCCCCCCCCCOC(=O)c1ccccc1C(=O)OCCCCCCCCCCC
- solvation free energy, 298 K (in O): -6.08 kcal/mol

SMILES: c1ccc(P(c2ccccc2)c2ccccc2)cc1
- solvation free energy, 298 K (in CC(C)O): -15.4 kcal/mol
- solvation free energy, 298 K (in CCO): -15.7 kcal/mol
- solvation free energy, 298 K (in CO): -15.4 kcal/mol

SMILES: CS(=O)(=O)Cl
- solvation free energy, 298 K (in O): -4.87 kcal/mol

SMILES: CCCCC[N+](=O)[O-]
- solvation free energy, 298 K (in O): -2.82 kcal/mol

SMILES: CN1CCCC1
- solvation free energy, 298 K (in CCCCCCCCO): -4.97 kcal/mol

SMILES: N#CCc1ccccc1
- solvation free energy, 298 K (in CCCCCCCCCCCCCCCC): -6.06 kcal/mol
- solvation free energy, 298 K (in O): -5.05 kcal/mol

SMILES: CSc1ccccc1
- solvation free energy, 298 K (in O): -2.73 kcal/mol

SMILES: Cc1cccc(N)c1
- solvation free energy, 298 K (in O): -5.69 kcal/mol

SMILES: OCC(O)C(O)C(O)C(O)CO (centres undefined)
- solvation free energy, 298 K (in O): -23.6 kcal/mol

SMILES: CCC(C)O (centres undefined)
- solvation free energy, 298 K (in Brc1ccccc1): -4.15 kcal/mol
- solvation free energy, 298 K (in C1COCCO1): -5.54 kcal/mol
- solvation free energy, 298 K (in CC#N): -4.82 kcal/mol
- solvation free energy, 298 K (in CC(=O)N(C)C): -5.89 kcal/mol
- solvation free energy, 298 K (in CC(C)(C)O): -5.67 kcal/mol
- solvation free energy, 298 K (in CC(C)CC(C)(C)C): -3.42 kcal/mol
- solvation free energy, 298 K (in CC(C)O): -5.61 kcal/mol
- solvation free energy, 298 K (in CC(C)OC(C)C): -4.56 kcal/mol
- solvation free energy, 298 K (in CCC(C)=O): -5.18 kcal/mol
- solvation free energy, 298 K (in CCCCCC): -3.56 kcal/mol
- solvation free energy, 298 K (in CCCCCCC): -3.28 kcal/mol
- solvation free energy, 298 K (in CCCCCCCC): -3.26 kcal/mol
- solvation free energy, 298 K (in CCCCCCCCCCCCCCCC): -3.16 kcal/mol
- solvation free energy, 298 K (in CCCCCCCCCCO): -5.31 kcal/mol
- solvation free energy, 298 K (in CCCCCCCCO): -5.15 kcal/mol
- solvation free energy, 298 K (in CCCCCl): -4.17 kcal/mol
- solvation free energy, 298 K (in CCCCO): -5.5 kcal/mol
- solvation free energy, 298 K (in CCCCOC(C)=O): -4.9 kcal/mol
- solvation free energy, 298 K (in CCCOCCC): -4.4 kcal/mol
- solvation free energy, 298 K (in CCOC(=O)c1ccccc1C(=O)OCC): -4.35 kcal/mol
- solvation free energy, 298 K (in CN(C)C=O): -5.67 kcal/mol
- solvation free energy, 298 K (in CO): -6.02 kcal/mol
- solvation free energy, 298 K (in Cc1ccc(C)cc1): -4.23 kcal/mol
- solvation free energy, 298 K (in Cc1cccc(C)c1): -4.14 kcal/mol
- solvation free energy, 298 K (in Cc1ccccc1C): -4.19 kcal/mol
- solvation free energy, 298 K (in Clc1ccccc1): -4.26 kcal/mol

SMILES: COc1ccc(C(=O)O)cc1
- solvation free energy, 298 K (in C1CCOC1): -12.7 kcal/mol
- solvation free energy, 298 K (in C1COCCO1): -12.4 kcal/mol
- solvation free energy, 298 K (in CC(C)CCO): -11.5 kcal/mol
- solvation free energy, 298 K (in CC(C)CO): -11.5 kcal/mol
- solvation free energy, 298 K (in CC(C)O): -11.8 kcal/mol
- solvation free energy, 298 K (in CC(C)OC(C)C): -10.8 kcal/mol
- solvation free energy, 298 K (in CC(C)OCCO): -12.3 kcal/mol
- solvation free energy, 298 K (in CC(O)COC(C)(C)C): -11.9 kcal/mol
- solvation free energy, 298 K (in CCC(C)O): -11.7 kcal/mol
- solvation free energy, 298 K (in CCCC(C)O): -11.6 kcal/mol
- solvation free energy, 298 K (in CCCCCCCCCCO): -11.4 kcal/mol
- solvation free energy, 298 K (in CCCCCCCCO): -11.5 kcal/mol
- solvation free energy, 298 K (in CCCCCCCO): -11.5 kcal/mol
- solvation free energy, 298 K (in CCCCCCO): -11.6 kcal/mol
- solvation free energy, 298 K (in CCCCCO): -11.6 kcal/mol
- solvation free energy, 298 K (in CCCCO): -11.7 kcal/mol
- solvation free energy, 298 K (in CCCCOC(C)=O): -11.5 kcal/mol
- solvation free energy, 298 K (in CCCCOCCO): -12.2 kcal/mol
- solvation free energy, 298 K (in CCCO): -11.8 kcal/mol
- solvation free energy, 298 K (in CCCOCCO): -12.2 kcal/mol
- solvation free energy, 298 K (in CCO): -12 kcal/mol
- solvation free energy, 298 K (in CCOC(C)=O): -11.8 kcal/mol
- solvation free energy, 298 K (in CCOCC): -11.5 kcal/mol
- solvation free energy, 298 K (in CCOCCO): -12.4 kcal/mol
- solvation free energy, 298 K (in COC(C)CCO): -12.3 kcal/mol
- solvation free energy, 298 K (in O): -9.14 kcal/mol

SMILES: Oc1c(I)cc(I)cc1I
- solvation free energy, 298 K (in CC(C)CC(C)(C)C): -12.4 kcal/mol
- solvation free energy, 298 K (in CCCCOCCCC): -14.2 kcal/mol
- solvation free energy, 298 K (in O): -7.16 kcal/mol

SMILES: COc1cccc(N)c1
- solvation free energy, 298 K (in O): -7.29 kcal/mol

SMILES: CCCc1ccc(O)cc1
- solvation free energy, 298 K (in O): -5.21 kcal/mol

SMILES: FC(F)(F)C(Cl)Br (centres undefined)
- solvation free energy, 298 K (in C1CCOC1): -5.01 kcal/mol
- solvation free energy, 298 K (in C1COCCO1): -4.41 kcal/mol
- solvation free energy, 298 K (in CC(C)=O): -4.77 kcal/mol
- solvation free energy, 298 K (in COC(C)(C)C): -4.69 kcal/mol
- solvation free energy, 298 K (in COC(C)=O): -4.61 kcal/mol

SMILES: Clc1ccc(C(c2ccc(Cl)cc2)C(Cl)(Cl)Cl)cc1
- solvation free energy, 298 K (in CCCCCCCCC=CCCCCCCCC(=O)OCC(COC(=O)CCCCCCCC=CCCCCCCCC)OC(=O)CCCCCCCC=CCCCCCCCC): -14.9 kcal/mol
- solvation free energy, 298 K (in CCCCCCCCO): -13.8 kcal/mol
- solvation free energy, 298 K (in O): -4.61 kcal/mol

SMILES: CS(C)(=O)=O
- solvation free energy, 298 K (in O): -10.1 kcal/mol

SMILES: CCCCN(C)N=O
- solvation free energy, 298 K (in CC(C)CC(C)(C)C): -5.73 kcal/mol
- solvation free energy, 298 K (in O): -5.37 kcal/mol

SMILES: C=C1CCC2(C(C)C)CC12 (centres undefined)
- solvation free energy, 298 K (in O): 0.49 kcal/mol

SMILES: CC=C(C)C
- solvation free energy, 298 K (in BrC(Br)C(Br)Br): -2.68 kcal/mol
- solvation free energy, 298 K (in C1=Cc2ccccc2C1): -3.05 kcal/mol
- solvation free energy, 298 K (in C=CCCCCCCCCCCCCCC): -2.97 kcal/mol
- solvation free energy, 298 K (in CC1COC(=O)O1): -2.09 kcal/mol
- solvation free energy, 298 K (in CC(=O)N(C)C): -2.58 kcal/mol
- solvation free energy, 298 K (in CC(=O)c1ccccc1): -2.79 kcal/mol
- solvation free energy, 298 K (in CC(C)(C)O): -3.22 kcal/mol
- solvation free energy, 298 K (in CCCCC#N): -2.9 kcal/mol
- solvation free energy, 298 K (in CCCCCC#N): -2.96 kcal/mol
- solvation free energy, 298 K (in CCNC(C)=O): -2.69 kcal/mol
- solvation free energy, 298 K (in CN1CCCC1=O): -2.51 kcal/mol
- solvation free energy, 298 K (in CN(C)C=O): -2.56 kcal/mol
- solvation free energy, 298 K (in CN(C)P(=O)(N(C)C)N(C)C): -2.61 kcal/mol
- solvation free energy, 298 K (in CNC(C)=O): -2.54 kcal/mol
- solvation free energy, 298 K (in CNC=O): -2.17 kcal/mol
- solvation free energy, 298 K (in CS(C)=O): -1.97 kcal/mol
- solvation free energy, 298 K (in Cc1cccc2ccccc12): -2.88 kcal/mol
- solvation free energy, 298 K (in Cc1cccc(O)c1): -2.63 kcal/mol
- solvation free energy, 298 K (in ClC(Cl)C(Cl)Cl): -3.16 kcal/mol
- solvation free energy, 298 K (in Clc1cccc2ccccc12): -2.8 kcal/mol
- solvation free energy, 298 K (in N#CCCCC#N): -1.67 kcal/mol
- solvation free energy, 298 K (in N#CCCCCC#N): -1.98 kcal/mol
- solvation free energy, 298 K (in N#CCc1ccccc1): -2.48 kcal/mol
- solvation free energy, 298 K (in N#Cc1ccccc1): -2.89 kcal/mol
- solvation free energy, 298 K (in NCc1ccccc1): -2.67 kcal/mol
- solvation free energy, 298 K (in Nc1ccccc1): -2.3 kcal/mol
- solvation free energy, 298 K (in O): 1.37 kcal/mol
- solvation free energy, 298 K (in O=C1CCCCC1): -3.09 kcal/mol
- solvation free energy, 298 K (in O=C(O)C(Cl)Cl): -2.63 kcal/mol
- solvation free energy, 298 K (in OCCO): -0.76 kcal/mol
- solvation free energy, 298 K (in OCc1ccccc1): -2.44 kcal/mol

From the CombiSolv-Exp solvation set (Vermeire and Green 2021)
